Experimental data from patent US5118669A, “Peptides and intermediates therefor useful as antiallergic agents, vasodilators and immunoregulators” (Hitachi Chemical Co., Ltd., priority 1989, dated 1992).

Tests used:
[1] = test system: thoracic aorta of male rabbits contracted with norepinephrine; assay: Vasodilating action on aortic spiral strip contracted with norepinephrine; design: species or system rabbit; conditions: norepinephrine contraction
Method: (§1) The thoracic aorta of male rabbits weighing 2.5-3 kg was excised and aortic specimens of spiral strip 25-30 mm in length were prepared. […] The specimen was cumulatively administered with H-Asp-Gly-Lys-OH, H Ser-Asp-Gly-Lys-OH, or H-Asp-Ser-Asp-Gly-Lys-OH or H-Ala-Asp-Ser-Asp-Gly-Lys-OH, and relaxation reaction of the blood vessel was observed. As comparative drug were employed nitroprusside (sodium salt) and verapamil.

TNF = assay: Productivity of humoral factors by lymphocytes: TNF; format: cell-based, human (healthy adult); conditions: for TNF: cultivation for a week, control 2,020
Method: (§2) Mononuclear cells separated by the density centrifugal method from blood of a healthy adult drawn in the presence of heparin were suspended in an RPMI-1640 culture medium containing 10% by volume of FBS. The suspension was divided into culture tubes (Falcon 2054) each at a concentration of 1×10^6 cells/ml, to which the captioned peptides were respectively added. Cultivation was made in an incubator for a week. After completion of the cultivation, the culture was centrifuged (1,500 rpm, 10 min.), and the supernatant collected and assayed for humoral factors. Interleukin 1 (IL-1) and tumor-nectrotizing factors were measured, respectively by a IL-1 radioimmunoassay kit (manufactured by Amersham International) and a TNF radioimmunoassay kit (manufactured by Medgenix). Measurement of interleukin 6 (IL-6) was made by the enzyme immunoassay method (ELISA) using IL-6 antibody (manufactured by Genzyme). Results of the measurements are shown in Table 7 wherein figures represent mean value±standard error.

[2] = test system: lymphocytes (mononuclear cells from blood of a healthy adult); assay: Blast formation of lymphocytes stimulated with various lectins (3H-thymidine uptake); format: cell-based, human (healthy adult)
Method: Mononuclear cells were collected by the density centrifugal method from blood of a healthy adult drawn in the presence of heparin and suspended in an RPMI-1640 culture medium (manufactured by Gibco) containing 10% by volume of bovine fetus serum (called FBS, manufactured by Dainihon Seiyaku). The suspension, adjusted to a concentration of 1×10^6 cells/ml, was divided into a 96-well Falcon microplate (manufactured by Becton Dickinson) in a volume of 100 μl/well. Then, a lectin, 1 μg/ml of PHA (phytohemagglutinin), 10 μg/ml of Con-A (concanavalin A) or 15 μg/ml of PWM (pokeweed mitogen) and one of the captioned peptides at a predetermined concentration were added followed by addition of a 10% FBS containing RPMI-1640 medium to a final liquid volume of 200 μl. Cultivation was made in a 5% by volume CO2 incubator at 37° C. for 72 hours, and 24 hours before completion of the cultivation 5 μCi of ^3 H-thymidine was added. The cells were recovered by a cell harvester (manufactured by Bio-Lab), and uptake of the ^3 H-thymidine was measured by a scintillation counter. Results of the measurement are shown in Table 3-Table 6 wherein figures indicate mean count (cpm)±standard error.

[3] = test system: intraperitoneal mast cells of the rats; assay: Inhibitory activity on histamine release from passively sensitized rat mast cells; format: cell-based
Method: Male Wistar rats weighing 300-350 g were passively sensitized, and intraperitoneal mast cells of the rats were employed for the test. Rat antiserum used in the passive sensitization was prepared in accordance with the method of Mota [Immunology, 7, p. 681 (1964)] and the method of Hamaoka [J. Immunology, 113, p. 958 (1974)]. Male Wistar rats (weighing 200-250 g) each were injected ovalbumin (10 mg/kg) in a volume of 5 ml/kg intramuscularly on both thighs and simultaneously 2×10^10 cells of killed Bordetella pertussis were intraperitoneally administered to immunize the animal. Blood was drawn from the animal under ether anesthesia via the abdominal aorta on day 12 of the initial sensitization,from which antiserum was separated. The antiserum was lyophilized and stored at -20° C. Titer of the antiserum was assayed by the 48-hour rat PCA reaction. […] The anti-albumin IgE serum of the rat was two fold diluted, and 1 ml of the diluted serum was intraperitoneally administered to sensitize the animal. The rat was killed by blooding 48 hours after the sensitization, and 15 ml of a phosphate buffered saline (NaCl 8 g, KCl 0.2 g, Na2 HPO4.12H2 O 2.88 g, KH2 PO4 0.2 g, EDTA.2Na 0.2 g and bovine serum albumin 1 g, dissolved in purified water to make 1 liter, pH 7.4 (called PBS(-) hereinbelow) was intraperitoneally injected. The rat was then given light abdominal massage for about 2 min. and subjected to laparotomy to collect cells in the abdominal cavity. The cell suspension was centrifuged (1,000 rpm, 10 min.) and then resuspended in PBS(-). The PBS(-) suspension was overlayered on gum arabic density (specific gravity 1.075) followed by centrifugal separation (2,500 rpm, 10 min.). Deposited cells were washed with PBS(-) and suspended in fresh PBS(+)[a solution in which the EDTA 2Na in PBS(-) is replaced by 0.1 g of CaCl2, called PBS(+)] and adjusted to 1×10^5 cells/ml. The cell suspension was divided into silicone-treated test tubes in a volume of 0.8 ml/tube, which were then preincubated at 37° C. for 10 min. In the cell suspension-containing test tube was placed 0.1 ml of a test solution from various solutions diluted with PBS(+) followed by incubation at 37° C. for 15 min. To the test tube was then added 0.1 ml of a mixed solution of ovalbumin antigen (final concentration 1 mg/ml) and phosphatidyl-L-serine (final concentration 100 μm/ml) followed by incubation for additional 15 min. to release histamine. For cromoglycate, one of the comparative drugs, the drug was added 30 sec. prior to the addition of the antigen, and incubation was then made for additional 15 min. The reaction was terminated by addition of 1 ml of ice-cooled PBS(+), and the reaction mixture was centrifuged at 2,500 rpm for 10 min. To 2 ml of the supernatant was added 1 ml of a 4% solution of perchloric acid, and the mixture was assayed for free histamine. For the assay of total histamine, a sample was prepared by placing 0.8 ml of a suspension of untreated mast cells in boiling water for 10 min. followed by addition of 4% perchloric acid.
Amount of histamine in the sample was assayed by fluorimetry, and percent histamine release (%) was calculated by the equation [formula]

IL-1 = assay: Productivity of humoral factors by lymphocytes: IL-1; format: cell-based, human (healthy adult); conditions: for IL-1: cultivation for a week, control 7.1
Method: as §2

IL-6 = assay: Productivity of humoral factors by lymphocytes: IL-6; format: cell-based, human (healthy adult); conditions: for IL-6: cultivation for a week, control 270
Method: as §2

[4] = test system: thoracic aorta of male rabbits contracted with potassium chloride; assay: Vasodilating action on aortic spiral strip contracted with potassium chloride; design: species or system rabbit; conditions: potassium chloride contraction
Method: as §1

Substance: H-Ser-Asp-Gly-Lys-OH (H-SDGK-OH) [tetrapeptide]
- Percent relaxation ([1]; compound 10^-4 M): 52.6%
- Percent relaxation ([1]; compound 10^-5 M): 25.0%
- Percent relaxation ([1]; compound 10^-6 M): 17.7%
- Percent relaxation ([1]; compound 10^-7 M): 9.1%
- Percent relaxation ([1]; compound 10^-8 M): 1.7%
- TNF (TNF; additive 10^-6 M): 4,260 pg/ml
- TNF (TNF; additive 10^-8 M): 3,620 pg/ml
- production of TNF (TNF; summary of Table 7): promote production
- Uptake of 3H-thymidine by lymphocytes ([2]; Con-A (10 μg/ml), peptide 10^-6 M, control 37,800): 24,000 cpm
- Uptake of 3H-thymidine by lymphocytes ([2]; Con-A (10 μg/ml), peptide 10^-8 M, control 37,800): 24,200 cpm
- Uptake of 3H-thymidine by lymphocytes ([2]; PHA (1 μg/ml), peptide 10^-6 M, control 69,600): 59,000 cpm
- Uptake of 3H-thymidine by lymphocytes ([2]; PHA (1 μg/ml), peptide 10^-8 M, control 69,600): 62,100 cpm
- Uptake of 3H-thymidine by lymphocytes ([2]; PWM (15 μg/ml), peptide 10^-6 M, control 13,600): 9,000 cpm
- Uptake of 3H-thymidine by lymphocytes ([2]; PWM (15 μg/ml), peptide 10^-8 M, control 13,600): 10,000 cpm
- uptake of 3H-thymine by the lymphocytes stimulated with a lectin ([2]; lectin-stimulated, particularly Con-A, summary of Tables 3-6): strongly inhibit
- Uptake of 3H-thymidine by lymphocytes ([2]; mitogen None, peptide 10^-6 M, control 1,090): 911 cpm
- Uptake of 3H-thymidine by lymphocytes ([2]; mitogen None, peptide 10^-8 M, control 1,090): 1,436 cpm
- influence upon uptake of 3H-thymine by lymphocytes in the absence of a mitogen ([2]; no mitogen, summary of Tables 3-6): little influence
- inhibitory activity on histamine release ([3]; at a concentration of 10^-5 M or higher, FIG. 5-7): clear inhibitory activity
- potency of histamine release inhibition compared with H-Asp-Ser-Asp-Pro-Arg-OH ([3]; versus comparative drug H-Asp-Ser-Asp-Pro-Arg-OH): higher
- potency of histamine release inhibition compared with cromoglycate ([3]; versus cromoglycate): nearly equal to or higher
- IL-1 (IL-1; additive 10^-6 M): 11.2 fM/ml
- IL-1 (IL-1; additive 10^-8 M): 10.7 fM/ml
- production of IL-1 (IL-1; summary of Table 7): promote production
- IL-6 (IL-6; additive 10^-6 M): 280 U/ml
- IL-6 (IL-6; additive 10^-8 M): 350 U/ml
- production of IL-6 (IL-6; summary of Table 7): promote production
- Percent relaxation ([4]; compound 10^-4 M): 18.6%
- Percent relaxation ([4]; compound 10^-5 M): 7.2%
- Percent relaxation ([4]; compound 10^-6 M): 0%
- Percent relaxation ([4]; compound 10^-7 M): 0%
- Percent relaxation ([4]; compound 10^-8 M): 0%
